Several values for one entry are separate records, joined by “and”; a condition that tells them apart may be missing. Equal entries are not always repeated. Where two headings read alike, the source gives them in different places.
Assays:
[1] = test system: LTB4 in Washed Human Leukocytes; assay: Inhibition of LTB4 in washed human leukocytes; assay type: cell-based; settings: individual tests 1-4
CYP2C19 = CYP2C19 (Homo sapiens (Human), UniProt P33261); assay: Extracellular cytochrome P450 inhibition (microsomes); assay type: in vitro ADME; settings: concentrations up to and exceeding 40 μM
From the text: Final solvent concentrations were 1% (v/v) or less.

CYP1A2 = CYP1A2 (Homo sapiens (Human), UniProt P05177); assay: as above; assay type: in vitro ADME; settings: concentrations up to and exceeding 40 μM
Experimental: Aliquots of this mixture (89 μL) were delivered to each well of a 96-well polypropylene plate which contained an aliquot of inhibitor (1 μL). Final solvent concentrations were 1% (v/v) or less. Incubations were commenced with the addition of 10 μL β-NADPH (10 mM stock) to a final volume of 100 μL. […] Samples were centrifuged, and supernatant was transferred for LC-MS analysis.

[2] = Single-dose pharmacokinetics in beagle dogs; assay type: in vivo, female beagle dogs; settings: for Cmax: Oral
CYP2C9 = CYP2C9 (Homo sapiens (Human), UniProt P11712); assay: Extracellular cytochrome P450 inhibition (microsomes); assay type: in vitro ADME; settings: concentrations up to and exceeding 40 μM
[3] = Phase I study: pharmacokinetics after single and multiple oral doses; assay type: in vivo; settings: human, plasma
From the text: Study Design: Single center, double-blind, randomized, placebo-controlled, single ascending dose followed by multiple ascending dose study.
Sample Size: (1) Single Dose Phase: eight (8) subjects (6 active, 2 placebo) per dose level; up to 5 dose levels are planned (a total of 40 subjects if all 5 dose levels are completed); and (2) Multiple Dose Phase: eight (8) subjects (6 active, 2 placebo) per dose level; up to 4 dose levels are planned (a total of 32 subjects if all 4 dose levels are completed).
Formulations: Compound 2 was supplied as an oral powder for reconstitution. Placebo solution matched. […] The placebo differed only in the absence of the active.
The following dosing cohorts were used:
Routes of Administration: All doses were administered orally with approximately 100 mL of water rinse. Subjects were fasted for at least 8 hours prior to dosing and for 2 hours after dosing. For BID dosing in the Multiple Dose Phase, when applicable, subjects were fasted for at least 2 hours prior to the second daily dose.
Plasma concentrations of Compound 1 were determined using a validated LC/MS method. Whole blood ionophore-stimulated leukotriene LTB4 and urinary LTE4 production were assayed by ELISA and mass spectrometry, respectively.
Analysis of Samples: Concentrations of Compound 1 was determined in plasma samples collected from subjects. Similarly, concentrations of LTB4 in plasma and urinary LTE4 were determined in blood and urine samples collected.

[4] = test system: LTB4 in Human Whole Blood; assay: Human blood LTB4 inhibition assay; assay type: cell-based; settings: individual tests 1-8
Experimental: A non-limiting example of such a human blood LTB4 inhibition assay is as follows: Blood was drawn from consenting human volunteers into heparinized tubes and 125 μL aliquots added to wells containing 2.5 μL 50% dimethylsulfoxide (vehicle) or 2.5 μL drug in 50% dimethylsulfoxide. Samples were incubated for 15 minutes at 37° C. 2 μL calcium ionophore A23817 (from a 50 mM dimethylsulfoxide stock diluted just prior to the assay in Hanks balanced salt solution (Invitrogen)) to 1.25 mM) was added, solutions mixed and incubated for 30 minutes at 37° C. Samples were centrifuged at 1,000 rpm (˜200×g) for 10 minutes at 4° C., plasma removed and a 1:100 dilution assayed for LTB4 concentration using ELISA (Assay Designs). Drug concentrations to achieve 50% inhibition (IC50's) of vehicle LTB4 were determined by nonlinear regression (Graphpad Prism) of % inhibition versus log drug concentration.

[5] = Thermodynamic aqueous solubility by HPLC; assay type: physicochemical; settings: water
Experimental: The suspension was equilibrated at 25° C. for 24 hours then the pH was measured. The suspension was then filtered through a glass fibre C filter into a 96 well plate. […] Quantitation was by HPLC with reference to a standard solution of approximately 0.1 mg.ml^−1 in DMSO. Different volumes of the standard, diluted and undiluted sample solutions were injected.
Analysis was performed on an Agilent HP1100 series system equipped with a diode array detector and using ChemStation software vB.02.01-SR1.

CYP3A4 = CYP3A4 (Homo sapiens (Human), UniProt P08684); assay: Extracellular cytochrome P450 inhibition (microsomes); assay type: in vitro ADME; settings: concentrations up to and exceeding 40 μM
[6] = female, beagle, dog, plasma, po, 5 mg/kg, 0.5% Methylcellulose, Fasted
[7] = female, beagle, dog, plasma, po, 5 mg/kg, 0.5% Methylcellulose, Fed
[8] = female, beagle, dog, plasma, po, 6.5 mg/kg, 50 mg Pill, Fasted
[9] = female, beagle, dog, plasma, po, 6.5 mg/kg, 50 mg Pill, Fed
[10] = oral, 10 mg, multiple dose 10 mg, Day 1
[11] = oral, 10 mg, multiple dose 10 mg, Day 11
[12] = oral, 50 mg, multiple dose 50 mg, Day 1
[13] = oral, 50 mg, multiple dose 50 mg, Day 11
[14] = oral, 150 mg, multiple dose 150 mg, Day 1
[15] = oral, 150 mg, multiple dose 150 mg, Day 11
[16] = oral, 450 mg, multiple dose 450 mg, Day 1
[17] = oral, 450 mg, multiple dose 450 mg, Day 11
[18] = po, 50 mg, single dose 50 mg, oral solution
[19] = po, 150 mg, single dose 150 mg, oral solution
[20] = po, 300 mg, single dose 300 mg, oral solution
[21] = po, 600 mg, single dose 600 mg, oral solution
[22] = po, 1000 mg, single dose 1000 mg, oral solution

CYP2C9, sequence (P11712 whole entry, looked up): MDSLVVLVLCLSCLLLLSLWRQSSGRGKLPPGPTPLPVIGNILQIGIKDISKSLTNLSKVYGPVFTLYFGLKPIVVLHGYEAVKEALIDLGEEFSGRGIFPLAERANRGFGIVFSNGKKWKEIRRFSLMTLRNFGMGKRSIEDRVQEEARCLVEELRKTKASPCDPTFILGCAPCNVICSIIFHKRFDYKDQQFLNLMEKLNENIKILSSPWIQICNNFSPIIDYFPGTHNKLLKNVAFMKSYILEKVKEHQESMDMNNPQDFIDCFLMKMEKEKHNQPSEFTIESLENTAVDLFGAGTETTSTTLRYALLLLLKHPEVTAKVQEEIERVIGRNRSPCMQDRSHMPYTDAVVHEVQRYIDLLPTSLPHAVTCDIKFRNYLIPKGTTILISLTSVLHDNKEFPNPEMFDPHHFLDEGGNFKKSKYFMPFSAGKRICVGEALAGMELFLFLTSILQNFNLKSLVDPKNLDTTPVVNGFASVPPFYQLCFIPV
CYP1A2, sequence (P05177 whole entry): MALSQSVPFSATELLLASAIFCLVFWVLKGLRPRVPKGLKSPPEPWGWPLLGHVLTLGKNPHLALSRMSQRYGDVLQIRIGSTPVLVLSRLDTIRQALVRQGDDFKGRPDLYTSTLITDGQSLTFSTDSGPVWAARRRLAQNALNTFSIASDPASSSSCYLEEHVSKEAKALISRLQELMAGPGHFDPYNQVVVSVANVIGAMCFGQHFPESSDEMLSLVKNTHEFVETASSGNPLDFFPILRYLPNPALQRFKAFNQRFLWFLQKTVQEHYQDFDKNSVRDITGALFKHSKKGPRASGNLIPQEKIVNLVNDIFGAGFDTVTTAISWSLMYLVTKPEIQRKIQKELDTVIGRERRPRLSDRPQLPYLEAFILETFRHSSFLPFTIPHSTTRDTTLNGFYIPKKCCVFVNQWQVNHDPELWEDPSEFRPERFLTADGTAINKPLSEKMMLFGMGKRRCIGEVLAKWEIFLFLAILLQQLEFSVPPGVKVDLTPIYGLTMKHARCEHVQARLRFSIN
CYP3A4, sequence (P08684 whole entry, looked up): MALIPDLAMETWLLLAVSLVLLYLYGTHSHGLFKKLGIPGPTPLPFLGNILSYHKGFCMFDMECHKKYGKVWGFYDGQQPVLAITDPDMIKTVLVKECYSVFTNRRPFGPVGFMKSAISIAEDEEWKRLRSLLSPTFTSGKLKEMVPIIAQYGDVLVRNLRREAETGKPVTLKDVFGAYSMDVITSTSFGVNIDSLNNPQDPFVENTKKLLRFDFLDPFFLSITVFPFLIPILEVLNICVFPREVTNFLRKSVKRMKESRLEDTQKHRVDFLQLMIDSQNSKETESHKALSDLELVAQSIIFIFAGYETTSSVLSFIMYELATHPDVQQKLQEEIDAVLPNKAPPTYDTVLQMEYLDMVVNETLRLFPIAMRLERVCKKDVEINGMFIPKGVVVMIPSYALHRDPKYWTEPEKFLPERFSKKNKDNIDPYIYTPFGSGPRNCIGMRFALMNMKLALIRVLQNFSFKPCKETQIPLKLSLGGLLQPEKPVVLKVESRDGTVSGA
CYP2C19, sequence (P33261 whole entry): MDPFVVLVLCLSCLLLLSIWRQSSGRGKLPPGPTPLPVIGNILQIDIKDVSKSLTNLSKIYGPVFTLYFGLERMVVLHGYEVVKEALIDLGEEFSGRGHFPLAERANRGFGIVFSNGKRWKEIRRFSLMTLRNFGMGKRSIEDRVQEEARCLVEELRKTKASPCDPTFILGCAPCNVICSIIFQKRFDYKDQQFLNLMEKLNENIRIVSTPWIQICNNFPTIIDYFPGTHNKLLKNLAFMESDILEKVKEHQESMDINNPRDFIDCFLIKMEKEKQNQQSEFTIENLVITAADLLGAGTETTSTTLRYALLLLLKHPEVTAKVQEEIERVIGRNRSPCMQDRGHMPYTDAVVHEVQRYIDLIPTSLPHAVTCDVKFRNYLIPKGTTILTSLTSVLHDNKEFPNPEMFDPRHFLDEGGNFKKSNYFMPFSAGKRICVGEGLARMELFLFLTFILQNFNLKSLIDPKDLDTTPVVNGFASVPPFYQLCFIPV

Question: What does the source list for `CCOc1ccc(-c2ccc(Cn3c(CC(C)(C)C(=O)[O-])c(SC(C)(C)C)c4cc(OCc5ccc(C)cn5)ccc43)cc2)cn1.[Na+]` [Compound 2, sodium 3-[3-(tert-butylsulfanyl)-1-[4-(6-ethoxy-pyridin-3-yl)benzyl]-5-(5-methyl-pyridin-2-yl-methoxy)-1H-indol-2-yl]-2,2-dimethylpropionate]?
Answer: IC50 [1]: 0.49 nM and 0.87 nM and 0.22 nM and 0.17 nM; IC90 [1]: 0.77 nM and 1.03 nM and 0.46 nM and 0.41 nM; apparent inhibition (CYP2C19): No apparent inhibition; apparent inhibition (CYP1A2): No apparent inhibition; Cmax ([2]; 0.5% Methylcellulose, 5 mg/kg, Fasted): 12400 ng/mL; reduction in oral bioavailability and dose-adjusted AUC, IR pill compared to oral suspension ([2]; fasted or fed comparator dogs): ~30%; AUC(0-inf) [2, 6]: 67800 ng·h/mL; Tmax [2, 6]: 2 h; bioavailability [2, 6]: 52%; AUC(0-inf) [2, 7]: 24300 ng·h/mL; Tmax [2, 7]: 1.3 h; bioavailability [2, 7]: 19%; Cmax ([2]; female, beagle, dog, plasma, po, 5 mg/kg, 0.5% Methylcellulose, 5 mg/kg, Fed, read-out: Cmax): 3700 ng/mL; AUC(0-inf) [2, 8]: 41000 ng·h/mL; Tmax [2, 8]: 2 h; bioavailability [2, 8]: 24%; AUC(0-inf) [2, 9]: 14400 ng·h/mL; Tmax [2, 9]: 1.7 h; bioavailability [2, 9]: 8.4%; Cmax ([2]; female, beagle, dog, plasma, po, 6.5 mg/kg, 50 mg Pill, 6.5 mg/kg, Fasted, read-out: Cmax): 7600 ng/mL; Cmax ([2]; female, beagle, dog, plasma, po, 6.5 mg/kg, 50 mg Pill, 6.5 mg/kg, Fed, read-out: Cmax): 3200 ng/mL; half-life ([2]; female, beagle, dog, plasma, IV, 4:1 PEG400:Water, 0.67 mg/kg, Fasted): 13 h; apparent inhibition (CYP2C9): No apparent inhibition; Cmax [3, 10]: 70 ± 10 nM; Tmax [3, 10]: 4 ± 3.1 h; AUC(0-t) ([3]; oral, 10 mg, multiple dose 10 mg, Day 1, read-out: AUClast): 1.1 ± 0.2 µM·h; half-life ([3]; oral, 10 mg, multiple dose 10 mg, Day 1, read-out: t½ (converted)): 32 ± 23 h; Cmax [3, 11]: 130 ± 50 nM; Tmax [3, 11]: 10 ± 6.9 h; AUC(0-t) ([3]; oral, 10 mg, multiple dose 10 mg, Day 11, read-out: AUClast): 2.4 ± 1.1 µM·h; half-life ([3]; oral, 10 mg, multiple dose 10 mg, Day 11, read-out: t½ (converted)): 50 ± 41 h; Cmax [3, 12]: 600 ± 200 nM; Tmax [3, 12]: 4.2 ± 3 h; AUC(0-t) ([3]; oral, 50 mg, multiple dose 50 mg, Day 1, read-out: AUClast): 8.3 ± 2.9 µM·h; half-life ([3]; oral, 50 mg, multiple dose 50 mg, Day 1, read-out: t½ (converted)): 19 ± 10 h; Cmax [3, 13]: 900 ± 100 nM; Tmax [3, 13]: 3.2 ± 2 h; AUC(0-t) ([3]; oral, 50 mg, multiple dose 50 mg, Day 11, read-out: AUClast): 13.5 ± 3.4 µM·h; half-life ([3]; oral, 50 mg, multiple dose 50 mg, Day 11, read-out: t½ (converted)): 25 ± 11 h; Cmax [3, 14]: 1400 ± 700 nM; Tmax [3, 14]: 2.3 ± 0.8 h; AUC(0-t) ([3]; oral, 150 mg, multiple dose 150 mg, Day 1, read-out: AUClast): 16 ± 6.8 µM·h; half-life ([3]; oral, 150 mg, multiple dose 150 mg, Day 1, read-out: t½ (converted)): 16 ± 7.7 h; Cmax [3, 15]: 3000 ± 1200 nM; Tmax [3, 15]: 2 h; AUC(0-t) ([3]; oral, 150 mg, multiple dose 150 mg, Day 11, read-out: AUClast): 33 ± 16 µM·h; half-life ([3]; oral, 150 mg, multiple dose 150 mg, Day 11, read-out: t½ (converted)): 19 ± 13 h; Cmax [3, 16]: 7300 ± 6000 nM; Tmax [3, 16]: 2 h; AUC(0-t) ([3]; oral, 450 mg, multiple dose 450 mg, Day 1, read-out: AUClast): 57 ± 39 µM·h; half-life ([3]; oral, 450 mg, multiple dose 450 mg, Day 1, read-out: t½ (converted)): 12 ± 4 h; Cmax [3, 17]: 9300 ± 5400 nM; Tmax [3, 17]: 2 h; AUC(0-t) ([3]; oral, 450 mg, multiple dose 450 mg, Day 11, read-out: AUClast): 76 ± 33 µM·h; half-life ([3]; oral, 450 mg, multiple dose 450 mg, Day 11, read-out: t½ (converted)): 14 ± 4 h; Cmax [3, 18]: 570 ± 300 nM; Tmax [3, 18]: 2.2 ± 0.4 h; AUC(0-t) ([3]; po, 50 mg, single dose 50 mg, oral solution, read-out: AUC0-24): 6.5 ± 2.2 µM·h; half-life ([3]; po, 50 mg, single dose 50 mg, oral solution, read-out: t1/2 (converted)): 12.8 ± 2.9 h; Cmax [3, 19]: 2200 ± 500 nM; Tmax [3, 19]: 2.3 ± 0.5 h; AUC(0-t) ([3]; po, 150 mg, single dose 150 mg, oral solution, read-out: AUC0-24): 21.7 ± 6.1 µM·h; half-life ([3]; po, 150 mg, single dose 150 mg, oral solution, read-out: t1/2 (converted)): 11.1 ± 2.8 h; Cmax [3, 20]: 3000 ± 1500 nM; Tmax [3, 20]: 2.7 ± 1.5 h; AUC(0-t) ([3]; po, 300 mg, single dose 300 mg, oral solution, read-out: AUC0-24): 23.6 ± 5.9 µM·h; half-life ([3]; po, 300 mg, single dose 300 mg, oral solution, read-out: t1/2 (converted)): 9.8 ± 2.5 h; Cmax [3, 21]: 11200 ± 7000 nM; Tmax [3, 21]: 2.3 ± 0.5 h; AUC(0-t) ([3]; po, 600 mg, single dose 600 mg, oral solution, read-out: AUC0-24): 90 ± 50 µM·h; half-life ([3]; po, 600 mg, single dose 600 mg, oral solution, read-out: t1/2 (converted)): 14.1 ± 6.8 h; Cmax [3, 22]: 18200 ± 7600 nM; Tmax [3, 22]: 2 h; AUC(0-t) ([3]; po, 1000 mg, single dose 1000 mg, oral solution, read-out: AUC0-24): 110 ± 49 µM·h; half-life ([3]; po, 1000 mg, single dose 1000 mg, oral solution, read-out: t1/2 (converted)): 8.3 ± 1.1 h; IC50 [4]: 552 nM and 645 nM and 563 nM and 410 nM and 642 nM and 482 nM and 310 nM and 444 nM; IC90 [4]: 3440 nM and 1220 nM and 1550 nM and 810 nM and 1050 nM and 790 nM and 360 nM and 1240 nM; pH of unfiltered saturated solution ([5]; 25° C.): above 9; solubility at 24 h ([5]; 25 °C, thermodynamic from solid, both batches): > 10000 µg/mL; apparent inhibition (CYP3A4): No apparent inhibition

Reference: patent US8772495B2, “5-lipoxygenase-activating protein inhibitor” (Panmira Pharmaceuticals, LLC, priority 2008, dated 2014)
